# What was measured:
# SK-RC-52.hFAP cells = assay: Cell efflux assay with 177Lu-labeled ligands; format: cell-based
# Procedure: SK-RC-52.hFAP cells, were cultured using RPMI medium supplemented with 10% Fetal Bovine Serum (FBS) and 1% Antibiotic-Antimytotic. Cells were seeded in 24-well plates (200'000 cells/well, 0.5 mL/well) and incubated overnight at 37 °C, 5% CO2. Then, media was removed, cells were washed with PBS (2×0.5 mL) and incubated with a solution of ^177Lu-ESV6, ^177Lu-Bi-ESV6, ^177Lu-Tri-ESV6 or ^177Lu-FAP-2286 (10 KBq, […], 0.5 mL). After 1 h, media was removed, and cells were washed with PBS (2×0.5 mL) and incubated with fresh RPMI medium without supplements. Fractions of the culture media were measured with a gamma counter (Packard Cobra) at different time-points. Percentage of compound bound was calculated as fraction of the total activity and corrected for the ^177Lu decay, as shown in FIG. 3.
# SK-RC-52.hFAP tumors [1] = assay: Therapeutic efficacy, schedule optimization for combination with L19-IL2; format: in vivo, mouse (athymic Balb/c AnNRj-Foxn1); details: 5 MBq/mouse on day 7
# Procedure: The anti-cancer efficacy was assessed in athymic Balb/c AnNRj-Foxn1 mice bearing SK-RC-52.hFAP tumor in the right flank. Therapy experiments started when the average volume of established tumors had reached 100-150 mm^3. Body weight of the animals and tumor volume were daily measured and recorded. Tumor dimensions were measured with an electronic caliper and tumor volume was calculated with the formula (long side, mm)×(short side, mm)×(short side, mm)×0.5. Animals were euthanized when one or more termination criterium indicated by the experimental license was reached. Prism 7 software (GraphPad Software) was used for data analysis. Different groups were treated with (i) L19-IL2 as single agent at a dose of 0.05 mg/mouse on day 8,10 and 12, (ii) ^177Lu-Tri-ESV6 as single agent at a dose of 5 MBq/mouse on day 7 (iii) ^177Lu-Tri-ESV6+L19-IL2 combination (^177Lu-Tri-ESV6 at a dose of 5 MBq/mouse on day 7 followed by three administrations of L19-IL2 at a dose 0.05 mg/mouse on day 8, 10 and 12—SCHEDULE 1—, or by three administrations of L19-IL2 at a dose 0.05 mg/mouse on day 12, 17 and 22—SCHEDULE 2—, or by a single administration of L19-IL2 at a dose 0.05 mg/mouse on day 8—SCHEDULE 3—, or by a single administration of L19-IL2 at a dose 0.05 mg/mouse on day 12—SCHEDULE 4—or (iv) saline […].
# SK-RC-52.hFAP tumors [2] = assay: 177Lu biodistribution at different radioisotope molar activities; format: in vivo, mouse; details: 0.2 vs 4.8 MBq/nmol; 24 h post injection
# Procedure: Prior to the biodistribution study at different specific activities (FIG. 19), precursors (20 nmol) were dissolved in milliQ water and diluted with sodium acetate (1 M in water, pH=4.5). ^177Lu solution (4 or 96 MBq) were added and the mixture was heated at 90 °C for 10 minutes, followed by dilution with PBS to achieve final volume of 400 μL (4 doses of 100 μL each, corresponding to 0.2 MBq/nmol and 4.8MBq/nmol, respectively).
# Results of the ^177Lu biodistribution study at different specific activities: low (0.2 MBq/nmol) and high (4.8 MBq/nmol) with ^177Lu Tri-ESV6-DOTAGA are shown in FIG. 19.
# SK-RC-52.hFAP tumors [3] = assay: Therapeutic efficacy in SK-RC-52.hFAP tumor bearing mice; format: in vivo, mouse (athymic Balb/c AnNRj-Foxn1); details: single administration, 250 nmol/kg, 250 MBq/kg
# Procedure: SK-RC-52.hFAP were grown to 80% confluence in RPMI-1640 with 10% fetal bovine serum (FBS) and 1% antibiotic-antimycotic and detached with Trypsin-EDTA (ethylenediaminetetraacetic acid) 0.05%. Tumor cells were resuspended in Hanks' Balanced Salt Solution medium. Aliquots of 5 million cells (100 μL of suspension) were injected subcutaneously in the right flank of female athymic Balb/c AnNRj-Foxn1 mice (6 to 8 wk of age).
# Prior to the therapy studies, precursors (25 nmol) were dissolved in 25 μL of milliQ water, then sodium acetate buffer (75 μL, 1 M in water) and 25, 75 or 150 MBq of ^177Lu solution were added. The mixture was heated at 90 °C for 1 minutes followed by dilution with 400 μL of PBS to afford a final volume of 500 μL (5 doses of 100 μL each). […]
# The anti-cancer efficacy of ^177Lu-ESV6, ^177Lu-Bi-ESV6 and ^177Lu-Tri-ESV6 was assessed in athymic Balb/c AnNRj-Foxn1 mice bearing SK-RC-52.hFAP tumor in the right flank. ^177Lu-ESV6, ^177Lu-Bi-ESV6 or ^177Lu-Tri-ESV6 were intravenously administered at a dose of 250 nmol/kg, 250 MBq/kg (single administration on day 9 after tumor implantation). […] Body weight of the animals and tumor volume were daily measured and recorded. Tumor dimensions were measured with an electronic caliper and tumor volume was calculated with the formula (long side, mm)×(short side, mm)×(short side, mm)×0.5. […]
SMILES,"residence time / efflux, in words (SK-RC-52.hFAP cells)","therapeutic activity, in words (SK-RC-52.hFAP tumors [1])","effect of molar activity on biodistribution, in words (SK-RC-52.hFAP tumors [2])","therapeutic activity (tumor volume), in words (SK-RC-52.hFAP tumors [3])"
N#CC1CC(F)(F)CN1C(=O)CNC(=O)c1ccnc2c(NC(=O)CCC(=O)NCCNC(=O)CCOCC(COCCC(=O)NCCNC(=O)CCC(=O)Nc3cccc4c(C(=O)NCC(=O)N5CC(F)(F)CC5C#N)ccnc34)(COCCC(=O)NCCNC(=O)CCC(=O)Nc3cccc4c(C(=O)NCC(=O)N5CC(F)(F)CC5C#N)ccnc34)NC(=O)CCC(C(=O)O)N3CCN(CC(=O)[O-])CCN(CC(=O)[O-])CCN(CC(=O)[O-])CC3)cccc12.[177Lu+3] (stereo not shown) [^177Lu-Tri-ESV6-DOTAGA],"longer residence time in FAP-positive tumor cells, followed by ^177Lu-Bi-ESV6, ^177Lu-ESV6 and ^177Lu-FAP2286",dose-dependent therapeutic activity,does not significantly interfere with the advantageous biodistribution,
"N#C[C@@H]1CC(F)(F)CN1C(=O)CNC(=O)c1ccnc2c(NC(=O)CCC(=O)NCCNC(=O)CCOCC(COCCC(=O)NCCNC(=O)CCC(=O)Nc3cccc4c(C(=O)NCC(=O)N5CC(F)(F)C[C@H]5C#N)ccnc34)(COCCC(=O)NCCNC(=O)CCC(=O)Nc3cccc4c(C(=O)NCC(=O)N5CC(F)(F)C[C@H]5C#N)ccnc34)NC(=O)CCC(C(=O)O)N3CCN(CC(=O)O)CCN(CC(=O)O)CCN(CC(=O)O)CC3)cccc12 (stereo partly drawn) [Tri-ESV6-DOTAGA, 2,2′,2″-(10-(19-carboxy-1-((4-((2-((S)-2-cyano-4,4-difluoropyrrolidin-1-yl)-2-oxoethyl)carbamoyl)quinolin-8-yl)amino)-14,14-bis((3-((2-(4-((4-((2-((S)-2-cyano-4,4-difluoropyrrolidin-1-yl)-2-oxoethyl)carbamoyl)quinolin-8-yl)amino)-4-oxobutanamido)ethyl)amino)-3-oxopropoxy)methyl)-1,4,9,16-tetraoxo-12-oxa-5,8,15-triazanonadecan-19-yl)-1,4,7,10-tetraazacyclododecane-1,4,7-triyl)triacetic acid]",,,,remarkable therapeutic activity

# From US20260364214A1, “MULTIVALENT FIBROBLAST ACTIVATION PROTEIN LIGANDS FOR TARGETED DELIVERY APPLICATIONS” (Philochem AG, priority 2022, published 2026)
